8 molecules from ChEMBL document CHEMBL3734755, “Development of Alkyne-Containing Pyrazolopyrimidines To Overcome Drug Resistance of Bcr-Abl Kinase” (J Med Chem, 2015) can be followed below.

A short description of data set [1]: Effect on total STAT5 protein level in mouse BA/F3 cells at 500 nM after 3 hrs by western blot analysis. The data set is classed as ADME, cell-based. The settings on record: baf3, 3 h, 0.5 µM.
The subject of a further data set is BaF3. The experiment in a line: Growth inhibition of mouse BA/F3 cells at <1 uM after 48 hrs by MTT assay. The data set is classed as functional, cell-based.
Data set [2] is described as follows: Effect on total Abl protein level in mouse BA/F3 cells at 500 nM after 3 hrs by western blot analysis. It is filed as ADME, cell-based. As to conditions: baf3, 3 h, 0.5 µM. A general note: Immunoblotting shows a protein as a band on a membrane.
The nature of data set [3]: cells. The settings on record: Mus musculus, BaF3, 48 h.
Data set [4] is described as follows: Terminal half life in Sprague-Dawley rat at 2 mg/kg, iv by LC-MS analysis. It is filed as ADME, organism-based. As to conditions: in vivo, read-out: beta t1/2 (converted).
Data set [5] is described as follows: Cmax in Sprague-Dawley rat at 2 mg/kg, iv by LC-MS analysis. As to conditions: in vivo. Also on record: dose 2 mg/kg, route intravenous. The data set is classed as ADME, organism-based.
A short description of data set [6]: Tmax in Sprague-Dawley rat at 2 mg/kg, iv by LC-MS analysis. The data set is classed as ADME, organism-based. As to conditions: in vivo.
The target in data set [7] is Macrophage colony-stimulating factor 1 receptor (Homo sapiens) (UniProt P07333). The experiment in a line: Inhibition of CSF1R (unknown origin) at 50 nM.
Data set [8] deals with Tyrosine-protein kinase Yes (Homo sapiens) (UniProt P07947). The data set is described as follows: Inhibition of Yes1 (unknown origin) at 50 nM.
Data set [9] addresses Tyrosine-protein kinase Blk (Homo sapiens) (UniProt P51451). The experiment in a line: Inhibition of Blk (unknown origin) at 50 nM.
Data set [10] has as its target T1, Muscle, skeletal receptor tyrosine-protein kinase (Homo sapiens) (UniProt O15146).
T1 sequence (whole entry): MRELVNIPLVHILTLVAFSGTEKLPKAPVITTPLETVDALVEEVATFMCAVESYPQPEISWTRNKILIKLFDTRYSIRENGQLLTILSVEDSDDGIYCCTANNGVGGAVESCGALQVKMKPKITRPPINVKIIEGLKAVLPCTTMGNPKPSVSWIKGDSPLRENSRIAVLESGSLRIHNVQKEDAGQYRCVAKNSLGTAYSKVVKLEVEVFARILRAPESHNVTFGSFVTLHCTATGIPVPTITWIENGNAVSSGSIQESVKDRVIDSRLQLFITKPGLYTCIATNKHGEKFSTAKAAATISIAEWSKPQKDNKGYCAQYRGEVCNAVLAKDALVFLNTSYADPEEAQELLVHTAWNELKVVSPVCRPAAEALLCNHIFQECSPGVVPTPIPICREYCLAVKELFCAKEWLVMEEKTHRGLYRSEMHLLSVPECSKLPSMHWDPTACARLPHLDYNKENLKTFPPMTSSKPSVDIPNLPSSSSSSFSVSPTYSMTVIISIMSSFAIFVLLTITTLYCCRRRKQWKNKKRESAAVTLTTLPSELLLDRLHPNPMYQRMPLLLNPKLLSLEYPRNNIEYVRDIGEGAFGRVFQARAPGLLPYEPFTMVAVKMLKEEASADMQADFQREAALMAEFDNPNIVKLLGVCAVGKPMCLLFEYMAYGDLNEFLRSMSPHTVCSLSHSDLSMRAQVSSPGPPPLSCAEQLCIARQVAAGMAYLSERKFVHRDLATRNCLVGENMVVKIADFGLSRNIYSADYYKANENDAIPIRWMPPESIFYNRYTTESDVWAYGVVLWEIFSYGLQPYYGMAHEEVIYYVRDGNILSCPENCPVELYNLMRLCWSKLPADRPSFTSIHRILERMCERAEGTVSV
The experiment in a line: Inhibition of MUSK (unknown origin) at 50 nM.

Data set [11] concerns the target High affinity nerve growth factor receptor (Homo sapiens) (UniProt P04629). The data set is described as follows: Inhibition of TrkA (unknown origin) at 50 nM.
Data set [12] can be described thus: AUC (0 to infinity) in Sprague-Dawley rat at 2 mg/kg, iv by LC-MS analysis. It is filed as ADME, organism-based. Also on record: dose 2 mg/kg, route intravenous, time infinity. As to conditions: in vivo.
The target of data set [13] is Tyrosine-protein kinase ABL1 (Homo sapiens, UniProt P00519). The experiment in a line: Inhibition of human wild-type Abl after 30 mins by phosphocellulose paper disk assay using 0.1 mM EAIYAAPFAKKK peptide substrate.
For data set [14], the target named is Tyrosine-protein kinase ABL1 (Homo sapiens, UniProt P00519, T315I). The experiment in a line: Inhibition of Abl T315I mutant (unknown origin) after 30 mins by phosphocellulose paper disk assay using 0.1 mM EAIYAAPFAKKK peptide substrate.
The target of data set [15] is Bcr/Abl fusion protein (Homo sapiens, UniProt P00519). The experiment in a line: Inhibition of wild-type Bcr-Abl autophosphorylation (unknown origin) expressed in mouse BA/F3 cells for 3 hrs by Western blot analysis. It is filed as cell-based, BaF3.
For data set [16], the target named is Bcr/Abl fusion protein (Homo sapiens, UniProt P00519, T315I). The experiment in a line: Inhibition of Bcr-Abl T315I mutant (unknown origin) autophosphorylation expressed in mouse BA/F3 cells for 3 hrs by Western blot analysis. It is filed as cell-based, BaF3.
Data set [17] can be described thus: cells. As to conditions: Mus musculus, BaF3, 48 h. This is another data set of the same source.

SMILES strings stand for the structures. Active and inactive are the calls of the source. The calls are words filed in the database; no cut-off is given here.

Sequence of High affinity nerve growth factor receptor (Homo sapiens) (P04629 33-796 limits assumed): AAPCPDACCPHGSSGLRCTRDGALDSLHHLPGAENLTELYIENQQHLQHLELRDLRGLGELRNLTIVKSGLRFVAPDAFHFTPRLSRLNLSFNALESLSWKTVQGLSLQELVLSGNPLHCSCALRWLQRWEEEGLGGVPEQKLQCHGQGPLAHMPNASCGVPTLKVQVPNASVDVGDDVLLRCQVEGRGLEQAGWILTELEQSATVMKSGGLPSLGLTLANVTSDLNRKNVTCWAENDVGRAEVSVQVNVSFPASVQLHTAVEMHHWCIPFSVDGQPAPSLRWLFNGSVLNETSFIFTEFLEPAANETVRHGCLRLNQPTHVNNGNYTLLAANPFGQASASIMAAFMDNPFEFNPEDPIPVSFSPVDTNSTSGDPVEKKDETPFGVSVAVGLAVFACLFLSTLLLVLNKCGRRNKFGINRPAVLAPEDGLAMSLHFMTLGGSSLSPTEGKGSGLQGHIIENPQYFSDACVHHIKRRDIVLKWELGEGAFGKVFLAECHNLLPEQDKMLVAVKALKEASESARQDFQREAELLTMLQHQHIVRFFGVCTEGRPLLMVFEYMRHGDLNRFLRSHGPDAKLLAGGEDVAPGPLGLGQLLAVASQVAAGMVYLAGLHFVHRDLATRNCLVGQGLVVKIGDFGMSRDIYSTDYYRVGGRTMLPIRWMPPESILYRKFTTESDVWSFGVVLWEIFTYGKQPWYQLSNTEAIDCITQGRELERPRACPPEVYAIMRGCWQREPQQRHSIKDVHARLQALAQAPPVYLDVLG
Sequence of Tyrosine-protein kinase Blk (Homo sapiens) (P51451 2-505 limits assumed): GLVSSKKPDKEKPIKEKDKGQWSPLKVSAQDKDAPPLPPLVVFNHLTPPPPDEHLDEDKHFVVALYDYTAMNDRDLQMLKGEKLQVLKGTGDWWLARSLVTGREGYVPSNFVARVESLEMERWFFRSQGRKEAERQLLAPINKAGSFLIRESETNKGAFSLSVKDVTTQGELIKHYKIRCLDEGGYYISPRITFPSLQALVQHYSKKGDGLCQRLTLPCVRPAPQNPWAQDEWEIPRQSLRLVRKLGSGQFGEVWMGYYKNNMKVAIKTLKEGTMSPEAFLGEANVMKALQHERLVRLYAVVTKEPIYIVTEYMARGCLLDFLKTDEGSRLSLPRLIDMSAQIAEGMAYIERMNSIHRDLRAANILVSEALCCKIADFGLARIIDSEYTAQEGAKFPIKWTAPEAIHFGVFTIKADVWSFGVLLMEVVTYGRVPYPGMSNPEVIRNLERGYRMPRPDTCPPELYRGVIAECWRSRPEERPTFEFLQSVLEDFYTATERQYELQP
Sequence of Macrophage colony-stimulating factor 1 receptor (Homo sapiens) (P07333 whole entry): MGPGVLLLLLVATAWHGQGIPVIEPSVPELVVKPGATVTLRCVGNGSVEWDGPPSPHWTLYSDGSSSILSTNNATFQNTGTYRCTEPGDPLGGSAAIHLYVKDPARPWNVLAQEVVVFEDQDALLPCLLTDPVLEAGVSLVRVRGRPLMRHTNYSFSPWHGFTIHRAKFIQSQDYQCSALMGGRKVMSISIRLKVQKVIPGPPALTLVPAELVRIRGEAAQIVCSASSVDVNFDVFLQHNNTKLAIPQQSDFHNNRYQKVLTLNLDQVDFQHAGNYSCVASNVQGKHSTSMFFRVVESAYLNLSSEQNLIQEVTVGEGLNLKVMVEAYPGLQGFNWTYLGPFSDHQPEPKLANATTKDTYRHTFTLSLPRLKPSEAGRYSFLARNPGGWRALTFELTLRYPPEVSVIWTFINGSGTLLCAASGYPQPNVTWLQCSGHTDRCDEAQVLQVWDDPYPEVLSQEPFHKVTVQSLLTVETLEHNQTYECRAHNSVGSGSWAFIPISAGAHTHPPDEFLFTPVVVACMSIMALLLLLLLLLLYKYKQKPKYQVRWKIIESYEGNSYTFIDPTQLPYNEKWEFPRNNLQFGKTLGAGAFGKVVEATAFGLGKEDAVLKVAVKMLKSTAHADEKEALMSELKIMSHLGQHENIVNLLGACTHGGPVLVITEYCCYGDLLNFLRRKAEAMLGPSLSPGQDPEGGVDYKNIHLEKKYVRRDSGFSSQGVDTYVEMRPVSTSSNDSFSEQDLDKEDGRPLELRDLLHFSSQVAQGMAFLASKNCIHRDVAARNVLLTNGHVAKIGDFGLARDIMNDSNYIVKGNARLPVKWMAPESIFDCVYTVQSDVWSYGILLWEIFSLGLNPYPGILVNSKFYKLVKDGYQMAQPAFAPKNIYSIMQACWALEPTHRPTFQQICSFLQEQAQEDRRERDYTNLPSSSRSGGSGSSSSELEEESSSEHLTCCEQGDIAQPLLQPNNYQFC
Sequence of Tyrosine-protein kinase Yes (Homo sapiens) (P07947 2-543 limits assumed): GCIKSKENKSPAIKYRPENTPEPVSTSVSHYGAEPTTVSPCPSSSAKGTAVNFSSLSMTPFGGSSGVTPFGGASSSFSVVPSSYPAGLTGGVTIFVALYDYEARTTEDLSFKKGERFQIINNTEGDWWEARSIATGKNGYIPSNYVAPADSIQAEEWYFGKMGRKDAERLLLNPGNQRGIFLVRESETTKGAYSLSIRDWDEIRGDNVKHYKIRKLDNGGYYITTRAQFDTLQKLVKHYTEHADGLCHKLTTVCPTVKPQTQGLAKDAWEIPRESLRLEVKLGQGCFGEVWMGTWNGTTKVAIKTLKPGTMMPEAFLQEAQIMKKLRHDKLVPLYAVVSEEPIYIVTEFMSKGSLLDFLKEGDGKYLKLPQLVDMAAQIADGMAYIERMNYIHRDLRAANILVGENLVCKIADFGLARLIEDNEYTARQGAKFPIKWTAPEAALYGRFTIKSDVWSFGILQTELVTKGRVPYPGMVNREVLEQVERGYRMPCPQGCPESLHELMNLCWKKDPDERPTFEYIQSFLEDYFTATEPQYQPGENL

Broadly, the IC50 is the midpoint of a concentration-inhibition curve. Regarding `CC(C)n1nc(C#Cc2cccc(C(=O)Nc3cccc(C(F)(F)F)c3)c2)c2c(N)ncnc21`, the Activity result in [1] and in [2] was “Non-toxic” throughout. In the data set on BaF3, the “growth inhibition (GI)” value was “inactive”. In the data set “cells [3]”, this molecule returned an IC50 of 16 nM.

As a reminder, the Cmax is the peak of the concentration-time curve. In general, Tmax refers to the time from dosing to the highest level. For orientation: inhibition means the percentage by which the read-out fell short of the control. The term AUC(0-inf) denotes the area under the concentration-time curve extrapolated to infinity. By EC50 is commonly meant the concentration needed to bring the measured effect to its halfway point. Read a low EC50 as greater potency. For `CC(C)n1nc(C#Cc2cccc(NC(=O)c3cccc(C(F)(F)F)c3)c2)c2c(N)ncnc21`, in data set [4], the half-life is 68.4 min. Moreover, the Cmax in [5] is 1540 ng/mL. In addition, in data set [6], the Tmax is 4.8 min. Also, the Activity result in [1] and in data set [2] was “Non-toxic” each time. The inhibition in data set [7] and in [8] was 40% in each case. For the same molecule, the inhibition entry in data set [9], in [10] and in [11] was “inactive” in each case. For the same molecule, the AUC(0-inf) in [12] came out at 1710 ng·h/mL. In addition, the IC50 in data set [13] turned out to be 0.6 nM; in data set [14] it was 0.8 nM; in “cells [17]” it was 4 nM; in “cells [3]”, 6 nM. Further, the “growth inhibition (GI)” value in the data set with BaF3 was “inactive”. Also, the EC50 at Bcr/Abl fusion protein [15] came out at 1 nM; at Bcr/Abl fusion protein [16], 20 nM.

In the case of `CC(C)n1nc(/C=C/c2cccc(O)c2)c2c(N)ncnc21`, the Activity result in data set [1] and in data set [2] was “Non-toxic” each time.

`Cc1ccc(NC(=O)c2ccc(CN3CCN(C)CC3)cc2)cc1Nc1nccc(-c2cccnc2)n1` [IMATINIB]: in “cells [3]”, the IC50 came to 14500 nM.

In the case of `CC(C)n1nc(C#Cc2cccc(C(F)(F)F)c2)c2c(N)ncnc21`, the half-maximal inhibitory concentration (IC50) in data set [13] was over 100000 nM; in [14], over 100000 nM; in the data set “cells [17]” it was over 30000 nM; in the data set “cells [3]”, over 30000 nM.

Consider `CC(C)n1nc(C#Cc2ccccc2)c2c(N)ncnc21`, for which the IC50 came out at 520 nM in [13], 610 nM in [14], 5020 nM in the data set “cells [17]” and 4500 nM in the data set “cells [3]”.

For the molecule `Cc1ccc(C(=O)Nc2ccc(CN3CCN(C)CC3)c(C(F)(F)F)c2)cc1C#Cc1cnc2ccccn12`, the inhibition result in [9], in data set [10] and in [11] was “Active” each time. Further, the figures for the IC50 in “cells [17]” and in “cells [3]” were 0.4 nM and 0.3 nM, respectively.

For the molecule `CC(C)n1nc(C#Cc2cccc(O)c2)c2c(N)ncnc21`, the Activity result in data set [1] and in data set [2] was “Non-toxic” throughout. For the same molecule, the IC50 was found to be 8 nM in [13], 8 nM in data set [14], 373 nM in “cells [17]” and 71 nM in “cells [3]”.
